Measurements taken from patent publication US11576326B2, “Wheat with new alleles of Rht-B1” (Commonwealth Scientific and Industrial Research Organisation, priority 2012, dated 2023).

Legend:
[1] = system: barley endosperm half-grains; test: α-Amylase production by endosperm half-grains incubated with GA3 (Ceralpha procedure); conditions: for α-Amylase at 42 h / α-Amylase at 72 h: GA3 (1 μM), 22° C.
Procedure: Endosperm half-grains were prepared and incubated with or without GA3 (1 μM) at 22° C. for 0, 42 or 72 h. To each sample, 1.5 mL of a solution of 10 mm CaCl2 was added, the half-grains were homogenised, and an aliquot of 1 mL was clarified by centrifugation (20,000 g for 5 min). The supernatant was analyzed for α-amylase activity using the Megazyme alpha-amylase (Ceralpha) procedure.
The production of α-amylase by endosperm half-grains of wild-type barley is dependent on the presence of an active GA. Therefore, monitoring α-amylase activity in the absence of an active GA provided a convenient measure of the extent of ‘basal’ GA signaling in the mutants. […] Among the overgrowth derivatives of Sln1d, the Sln1d.9 derivative was exceptional, accumulating very high levels of α-amylase at both 42 h and 72 h incubation, despite this line showing only a modest restoration of growth rate (Table 5).

[2] = system: barley seedlings (first leaf); test: Maximal daily leaf elongation rate (LERmax) of the first leaf of barley seedlings, with GA3; assay type: in vivo
Excerpt: The methods have been previously described (Chandler and Robertson, 1999). Curves were fitted to data points using a 4-parameter Hill equation.
The maximal daily rate of elongation (LERmax) achieved by the first leaf under standard conditions was a robust measure of GA responsiveness (Chandler and Robertson, 1999) and was therefore determined for all of the barley overgrowth lines and their parents (Table 5). […] Three overgrowth alleles (sln1m, sln1n and sln1s) were compared in both their original dwarfing genetic background as well as after back-crossing to the tall WT background. […] In a wild-type background, the overgrowth alleles tended to enhance growth rates.

increase in α-amylase activity over basal levels ([1]; 72 h incubation with GA3, control lines WT, grd2b): ~15 fold
α-Amylase at 42 h ([1]; line Him, genotype WT): 9.81 ± 0.86 Ceralpha units/grain
α-Amylase at 42 h ([1]; line M463, genotype grd2b): 7.20 ± 0.73 Ceralpha units/grain
α-Amylase at 72 h ([1]; line Him, genotype WT): 23.1 ± 2.8 Ceralpha units/grain
α-Amylase at 72 h ([1]; line M463, genotype grd2b): 18.9 ± 1.4 Ceralpha units/grain
SMILES: C=C1C[C@]23C[C@@]1(O)CC[C@H]2[C@@]12C=C[C@H](O)[C@@](C)(C(=O)O1)[C@H]2[C@@H]3C(=O)O [GA3]
LERmax ([2]; line Him (Himalaya), genotype WT): 52.3 ± 0.1 mm · d^−1
LERmax ([2]; line M463, genotype grd2b): 49.8 ± 0.8 mm · d^−1
LERmax ([2]; line M640, genotype Sln1d): 12.1 ± 0.3 mm · d^−1
LERmax ([2]; line M693, genotype gse1n): 35.3 ± 1.2 mm · d^−1
